According to patent US10538549B2, “NNA-DNA adducts as biomarkers for detecting exposure to thirdhand smoke” (The Regents of the University of California, priority 2014, dated 2020):
“Also recorded” adds a separate entry of the source.

Columns and labels:
HepG2 cells = assay: alkaline Comet assay, DNA strand breaks; format: cell-based; conditions: human HepG2 cells, exposure 24 h, 37° C.
From the text: (§1) We recently examined the genotoxicity of NNA in human HepG2 cells as well as its ability to modify both 2-deoxyguanosine (dGuo) and 2-deoxycytodine (dCyt) in vitro. […] In the reaction of NNA with dGuo, several adducts were identified with HPLC-UV spectrum, ESI-MS/MS and NMR. These include 8-oxo-2′-deoxyguanosine (8-oxo-dG), 0^6-methyl-dG, and N^2-methyl-dG. NNA also forms a bulky dG adduct with m/z 455.17 for (M+H)^+ in mass spectrum, which is due to the condensation of NNA and dG with the elimination of H2O and two hydrogen molecules. In addition, NNA causes novel DNA sugar damage, forming […]. […] In addition, the NNA-specific DNA adducts identified can be used as specific biomarkers of THS exposure.
FIGS. 3A and 3B: Genotoxic effect of NNA in human HepG2 cells as measured by the Comet assay. HepG2 cells were exposed to varying doses of NNA dissolved in DMEM medium with/without 10% FBS for 24 h. […] (A) Effect of acute THS and THS+HONO. HepG2 cells were exposed to samples at 37° C. for 24 h. The extent of DNA damage was analyzed by % DNA in tail to total DNA from 90 cells. (B) HepG2 cells were exposed to chronic THS at varying dilutions under identical conditions as above.
(§2) Using the alkaline Comet assay, we examined the potential of NNA to cause DNA strand breaks in cultured human hepatocellular carcinoma (HepG2) cells. […]

2-deoxyguanosine (dGuo) = assay: reaction of NNA with dGuo in vitro, DNA adduct formation; conditions: HPLC-UV, ESI-MS/MS, NMR
From the text: as §1
We discovered that NNA reacts with dGuo (“dG”) and dCyt (“dC”) to form various DNA adducts. […] The chemical structure of this adduct has been proposed and validated using various NMR experiments. Because of its specific structural characteristic, this adduct can serve as a DNA damage “signature” by NNA, thus a potential biomarker for monitoring exposure to thirdhand smoke.
as §2

2-deoxycytidine (dCyt) = assay: reaction of NNA with dCyt in vitro, adduct formation
From the text: NNA (1-(N-methyl-N-nitrosamino)-1-(3-pyridinyl)-4-butanal) is an important member of the carcinogenic/mutagenic tobacco-specific nitrosamines (TSNAs) and an unique constituent found in the most recently identified health risk called thirdhand smoke (THS). We studied the reactions of NNA with 2-deoxyguanosine (dGuo) and 2-deoxycytidine (dCyt) in vitro with regard to its ability to form stable base adducts, which have not been reported in literature at all. Herein we have identified and characterize potential specific THS biomarkers. We also describe experimental evidence for detrimental effects from exposure to THS, which could be useful for framing and enforcing new policies against indoor smoking.
Herein we describe the first evidence that reaction of NNA with dCyt in vitro results in formation of stable base adducts too, which have not been hereto for been reported in literature.
Using the alkaline Comet assay, we examined the potential of NNA to cause DNA strand breaks in cultured human hepatocellular carcinoma (HepG2) cells. Moreover, the ability of NNA to form DNA adducts with dGuo and dCyt in vitro was investigated and characterized using HPLC-UV, electrospray ionization mass spectrometry (ESI-MS/MS) and NMR. […]

| SMILES | DNA damage / DNA strand breaks (Comet assay) (HepG2 cells) | formation of DNA adducts with dGuo (2-deoxyguanosine (dGuo)) | formation of adducts with dC (2-deoxycytidine (dCyt)) |
| --- | --- | --- | --- |
| CN(N=O)C(CCC=O)c1cccnc1 (stereo not shown) [NNA, 1-(N-methyl-N-nitrosamino)-1-(3-pyridinyl)-4-butanal] | concentration-dependent DNA strand breaks; also recorded: induces DNA damage at low nanomolar concentrations; also recorded: results in DNA strand breaks in exposed cells; also recorded: causes significant DNA damage at nM concentrations | forms multiple DNA adducts in vitro | reacts with dC to form multiple adducts |
| CN(CCCC(=O)c1cccnc1)N=O [NNK, 4-(methylnitrosamino)-1-(3-pyridyl)-1-butanone, reference compound] | induces DNA damage at low nanomolar concentrations; also recorded: causes significant DNA damage at nM concentrations | – | – |
